Measurements: patent US12622893B2, “Alpha2 adrenergic agonist codrugs conjugated with muscarinic agonist drugs” (ADS THERAPEUTICS LLC, priority 2021, dated 2026)
Blank lines part the entries; values can stand above or below the compound they belong to.

Key:
[1] = In vitro metabolic stability in rabbit cornea homogenates; assay type: in vitro ADME, Dutch Belted rabbits; settings: 1 μM test compound, 0.3 mg/mL corneal protein homogenate, pH=6.0, 37° C.; for Rate of formation Metabolite 1: metabolite 1 = pilocarpine; for Rate of formation Metabolite 2: metabolite 2 as named under each value (Dexmedetomidine metabolite, brimonidine metabolite or brimonidine)
Protocol: Dutch Belted rabbits will be euthanized with an overdose of sodium pentobarbital. The corneas will be collected and homogenized in ice-cold potassium chloride solution (pH=7.4). The homogenate will be centrifuged at 755×g for 30 min at 4° C. and aliquots of the supernatant will be stored at or below −70° C. until metabolism experiments will be conducted. Prior to storing the homogenates, an aliquot will be removed for the determination of protein concentrations by calculating the […] using a spectrophotometer. All metabolic stability experiments will be performed in triplicate in 96-well plate format. The final incubation mixture will contain 1 μM test compound, 0.3 mg/mL corneal protein homogenate in a final volume of 0.5 mL 0.1 M potassium phosphate buffer (pH=6.0). The final percentage of solvent in the incubation will be less than 1.0% to prevent inhibition of enzymatic activity. Following a pre-incubation at 37° C., test article will be added to initiate the reaction. At designated time points (typically less than 60 minutes to capture the linear range of metabolite formation), 0.05 mL aliquots will be removed from the incubation mixtures using a clean pipet tip and immediately placed in organic solvent to stop any esterase activity. The hydrolysis to the metabolites will be confirmed to be due to esterase activity and not chemical stability. The samples will be analyzed by liquid chromatography with mass spectrometry (LC-MS/MS) detection to determine the metabolite concentrations resulting from the metabolism of the hybrid compounds. Internal standards were used to compensate for variability from sample processing, chromatographic elution, mass spectrometer response and ion suppression by matrix components.

rabbit pupil [2] = assay: In vivo pharmacology study of measuring pupil size (Example 28); set-up: species or system Dutch belted rabbits; settings: FIG. 3; for efficacy of pupil constriction compared with positive control 1: positive control 1 is 1.25% Pilocarpine HCl; for potency of pupil constriction compared with other co-drugs: all co-drugs at 1%
Protocol: Three (3) female Dutch belted rabbits were randomly assigned to each group by Provantis or Excel based on body weight. Each animal was dosed 40 μL of testing article (see Table 5 below) to both eyes. The pupil sizes of both eyes were measured at baseline (30 minutes before dosing), 0.5 h, 1 h, 2 h, 3 h, 4 h, 6 h, 8 h, 24 h after dosing. The pupil size measurement data were analyzed for efficacy of pupil constriction. Co-drug compounds are co-drugs of pilocarpine-alpha adrenergic agonists as described above. The vehicle used to dissolve Co-drug compounds is the same as the vehicle used in the negative control in group 1. Positive control 1 is 1.25% Pilocarpine HCl in an aqueous buffer. Positive control 2 is 3.0% Carbachol and 0.2% Brimonidine in an aqueous buffer. This control can result in a large pupil constrictive effect.

rabbit pupil [3] = assay: In vivo pharmacology study of measuring pupil size (Example 27); set-up: species or system Dutch belted rabbits; settings: FIG. 2; 0.5% and 2%
Protocol: Three (3) female Dutch belted rabbits were randomly assigned to each group by Provantis or Excel based on body weight. Each animal was dosed 40 μL of testing article (see Table 4 below) to both eyes. The pupil sizes of both eyes were measured at baseline (30 minutes before dosing), 0.5 h, 1 h, 2 h, 3 h, 4 h, 6 h, 8 h after dosing. The pupil size measurement data were analyzed for efficacy of pupil constriction. CBT compounds tested are co-drugs of pilocarpine-alpha adrenergic agonists as described above. The vehicle used to dissolve CBT compounds is the same as the vehicle used in the negative control in group 1. Positive control 1 is 1.25% Pilocarpine HCl in an aqueous buffer. Positive control 2 is 3.0% Carbachol and 0.2% Brimonidine in an aqueous buffer. This control can result in a large pupil constrictive effect.

[4] = In vivo ocular pharmacokinetics following a single topical ophthalmic administration; set-up: species or system New Zealand White Rabbits; settings: 0.5% (w/v) solution; for Conc. of Co-drug in Cornea Tissue: both eyes
Protocol: Rabbits will be dosed once by ocular instillation to both eyes with each compound formulated in a 0.5% (w/v) solution. At 0.25, 0.5, 1, 2, 6 and 10 hours post dose, cornea, aqueous humor, conjunctiva and eyelid margin will be collected and stored at approximately −70° C. until bioanalysis. Ocular tissue samples will be analyzed by liquid chromatography with mass spectrometry detection to determine the parent and metabolite (pilocarpine and brimonidine) concentrations resulting from the metabolism of ester linked co-drugs. Internal standards will be used to compensate for variability from sample processing, chromatographic elution, mass spectrometer response and ion suppression by matrix components. […]

[5] = 0.25 hr after dosing the co-drug
[6] = 0.5 hr after dosing the co-drug

Rate of formation Metabolite 1 [1]: 5.56 ± 0.43 nM/min/mg | Rate of formation Metabolite 2 [1]: 3.52 ± 0.23 nM/min/mg
Compound: CC[C@H](C(=O)OCc1cccc([C@H](C)c2c[nH]cn2)c1C)[C@H](CO)Cc1cncn1C [Compound-1, 3-((S)-1-(1H-imidazol-4-yl)ethyl)-2-methylbenzyl (2S,3R)-2-ethyl-4-hydroxy-3-((1-methyl-1H-imidazol-5-yl)methyl)butanoate]

Compound: CC[C@H](C(=O)N1CCN/C1=N/c1ccc2nccnc2c1Br)[C@H](COC(C)=O)Cc1cncn1C [Compound-16, (2R,3S)-3-((Z)-2-((5-bromoquinoxalin-6-yl)imino)imidazolidine-1-carbonyl)-2-((1-methyl-1H-imidazol-5-yl)methyl)pentyl acetate]
efficacy of pupil constriction compared with positive control 1 (rabbit pupil [2]): efficacies similar to that of positive control 1 | potency of pupil constriction compared with other co-drugs (rabbit pupil [2]): better potency than Compound-15 and Compound-19

Compound: CC[C@H](C(=O)OCc1cccc([C@H](C)c2c[nH]cn2)c1C)[C@H](COC(C)=O)Cc1cncn1C [Compound-2, 3-((S)-1-(1H-imidazol-4-yl)ethyl)-2-methylbenzyl (2S,3R)-4-acetoxy-2-ethyl-3-((1-methyl-1H-imidazol-5-yl)methyl)butanoate]
dose relation of pupil constriction (rabbit pupil [3]): dose-related effects | Rate of formation Metabolite 1 [1]: 4.34 ± 0.11 nM/min/mg | Rate of formation Metabolite 2 [1]: 2.87 ± 0.78 nM/min/mg

Rate of formation Metabolite 1 [1]: 2.13 ± 0.24 nM/min/mg | Rate of formation Metabolite 2 [1]: 4.98 ± 0.34 nM/min/mg
Compound: CC[C@H](C(=O)OCOC(=O)N1CCN=C1Nc1ccc2nccnc2c1Br)[C@H](CO)Cc1cncn1C [compound 5, (((2S,3R)-2-ethyl-4-hydroxy-3-((1-methyl-1H-imidazol-5-yl)methyl)butanoyl)oxy)methyl 2-((5-bromoquinoxalin-6-yl)amino)-4,5-dihydro-1H-imidazole-1-carboxylate]

Compound: CC[C@H](C(=O)OCOC(=O)N1CCN=C1Nc1ccc2[nH]cnc2c1Br)[C@H](COC(C)=O)Cc1cncn1C [Compound-4, (((2S,3R)-4-acetoxy-2-ethyl-3-((1-methyl-1H-imidazol-5-yl)methyl)butanoyl)oxy)methyl 2-((4-bromo-1H-benzo[d]imidazol-5-yl)amino)-4,5-dihydro-1H-imidazole-1-carboxylate]
Rate of formation Metabolite 1 [1]: 5.87 ± 0.97 nM/min/mg | Rate of formation Metabolite 2 [1]: 6.34 ± 0.07 nM/min/mg

Compound: CC[C@H](C(=O)N1CCN/C1=N/c1ccc2nccnc2c1Br)[C@H](COC(=O)C(C)(C)C)Cc1cncn1C [Compound-20, (2R,3S)-3-((Z)-2-((5-bromoquinoxalin-6-yl)imino)imidazolidine-1-carbonyl)-2-((1-methyl-1H-imidazol-5-yl)methyl)pentyl pivalate]
efficacy of pupil constriction compared with positive control 1 (rabbit pupil [2]): efficacies similar to that of positive control 1 | potency of pupil constriction compared with other co-drugs (rabbit pupil [2]): better potency than Compound-15 and Compound-19

Compound: CC[C@H](C(=O)OCOC(=O)N1CCN=C1Nc1ccc2nccnc2c1Br)[C@H](COC(C)=O)Cc1cncn1C [compound 6, (((2S,3R)-4-acetoxy-2-ethyl-3-((1-methyl-1H-imidazol-5-yl)methyl)butanoyl)oxy)methyl 2-((5-bromoquinoxalin-6-yl)amino)-4,5-dihydro-1H-imidazole-1-carboxylate]
Conc. of Brimonidine (Metabolite 2) in Cornea Tissue [4, 5]: 24 ± 12 ng/mL | Conc. of Pilocarpine (Metabolite 1) in Cornea Tissue [4, 5]: 39 ± 37 ng/mL | Conc. of Co-drug in Cornea Tissue ([4]; 0.25 hr post dose): 7238 ± 345 ng/mL | Conc. of Brimonidine (Metabolite 2) in Cornea Tissue [4, 6]: 78 ± 54 ng/mL | Conc. of Pilocarpine (Metabolite 1) in Cornea Tissue [4, 6]: 139 ± 78 ng/mL | Conc. of Co-drug in Cornea Tissue ([4]; 0.5 hr post dose): 987 ± 245 ng/mL | Conc. of Brimonidine (Metabolite 2) in Cornea Tissue ([4]; 1 hr after dosing the co-drug): 98 ± 23 ng/mL | Conc. of Pilocarpine (Metabolite 1) in Cornea Tissue ([4]; 1 hr after dosing the co-drug): 379 ± 120 ng/mL | Conc. of Co-drug in Cornea Tissue ([4]; 1 hr post dose): 234 ± 33 ng/mL | Conc. of Brimonidine (Metabolite 2) in Cornea Tissue ([4]; 2 hr after dosing the co-drug): 139 ± 37 ng/mL | Conc. of Pilocarpine (Metabolite 1) in Cornea Tissue ([4]; 2 hr after dosing the co-drug): 539 ± 30 ng/mL | Conc. of Co-drug in Cornea Tissue ([4]; 2 hr post dose): 95 ± 19 ng/mL | Conc. of Brimonidine (Metabolite 2) in Cornea Tissue ([4]; 6 hr after dosing the co-drug): 339 ± 134 ng/mL | Conc. of Pilocarpine (Metabolite 1) in Cornea Tissue ([4]; 6 hr after dosing the co-drug): 754 ± 127 ng/mL | Conc. of Co-drug in Cornea Tissue ([4]; 6 hr post dose): 39 ± 37 ng/mL | Conc. of Brimonidine (Metabolite 2) in Cornea Tissue ([4]; 10 hr after dosing the co-drug): 539 ± 97 ng/mL | Conc. of Pilocarpine (Metabolite 1) in Cornea Tissue ([4]; 10 hr after dosing the co-drug): 867 ± 37 ng/mL | Conc. of Co-drug in Cornea Tissue ([4]; 10 hr post dose): 12 ± 3 ng/mL | Rate of formation Metabolite 1 [1]: 7.43 ± 0.27 nM/min/mg | Rate of formation Metabolite 2 [1]: 1.98 ± 0.09 nM/min/mg

Rate of formation Metabolite 1 [1]: 8.86 ± 0.13 nM/min/mg | Rate of formation Metabolite 2 [1]: 1.23 ± 0.03 nM/min/mg
Compound: CC[C@H](C(=O)OCOC(=O)N1CCN=C1Nc1ccc2[nH]cnc2c1Br)[C@H](CO)Cc1cncn1C [compound 3, (((2S,3R)-2-ethyl-4-hydroxy-3-((1-methyl-1H-imidazol-5-yl)methyl)butanoyl)oxy)methyl 2-((4-bromo-1H-benzo[d]imidazol-5-yl)amino)-4,5-dihydro-1H-imidazole-1-carboxylate]
